Data as given in US20250206708A1, “AN OXAZIRIDINE PLATFORM FOR TARGETING FUNCTIONAL ALLOSTERIC METHIONINE SITES” (Novartis AG, priority 2022, published 2025).

Test system: CDK4
Assay: Competition and pulldown of Compound 300/Compound 148 in CDK4-overexpressing MCF-7 lysate
Type: binding, human
Details: varying Compound 148 prior to 500 μM Compound 300, CDK4 overexpression
Description: MCF-7 cells were grown to 40% confluency in 3 mL DMEM media (Gibco) containing 10% (v/v) FBS in a 6-well chamber at 37° C., 5% CO2. Transfection was then performed as per Lipofectamine 2000 protocol (Invitrogen). Briefly, 0 or 2.5 μg of pcDNA3.1(+)-FLAG-TEV-CDK4 expression construct was introduced at 0:0, 2:1 and 3:1 transfection reagent:DNA. The lipid-DNA complex was incubated for 30 mins at 23° C. in Opti-MEM media (Gibco). Then, 250 μL complex was added to 2.75 mL DMEM containing no FBS. 3 mL DMEM+DNA was added to each well, while control wells received DMEM only. Cells were incubated for 6H at 37° C., 5% CO2. The media was then aspirated, and cells were given 3 mL DMEM+10% FBS and left to incubate for an additional 30H at 37° C., 5% CO2. Cells were washed 3× in 500 μL ice-cold PBS then harvested by scraping in 200 μL ice-cold PBS+1% Triton X-100 containing EDTA-free protease inhibitors (Roche). Cells were lysed at 4° C. for 30 mins while rocking. Lysate was clarified by centrifugation at 10,000×g at 4° C. for 15 mins. The supernatant was then transferred to a fresh prechilled 1.5 mL microcentrifuge tube. Protein concentration was normalized to 2.0 mg/mL via BCA assay (Pierce; cat no. 23225). […] CDK4 expression was quantified by densitometry (ImageJ) and normalized to the actin loading control. […]

## O=C(N1CC2COCC2C1)N1OC1c1ccccc1 (stereo not shown) [Compound 148]
  CDK4 signal in eluted proteins after pulldown (competition with Compound 300): dose-dependent decrease in signal in eluted proteins
